For series [1] the following is noted: some clinical studies and anecdotal reports; a perception; cited from earlier work.
Series [2] can be described thus: Reports of subjects taking THCV. The format is in vivo. The source says: In a further aspect the invention also provides compositions which have specific ratios of tetrahydrocannabinovarin (THCV) or cannabidivarin (CBDV).
Series [3] is described as follows: Pain relief, THC alone versus cannabis extract.

Regarding `C=C(C)[C@@H]1CCC(C)=C[C@H]1c1c(O)cc(CCCCC)cc1O` [CBD, cannabidiol], in series [1], the “effect on psychoactive effects of THC” value was “modifies the psychoactive effects of THC”.
For the compound `CCCc1cc(O)c2c(c1)OC(C)(C)[C@@H]1CCC(C)=C[C@@H]21` [THCV, tetrahydrocannabinovarin], the hangover result in series [2] is “less severe hangover”. Further, the mood enhancement result in series [2] (compared with THC) is listed as “less disturbing than that produced by THC”.
Regarding `CCCCCc1cc(O)c2c(c1)OC(C)(C)[C@@H]1CCC(C)=C[C@@H]21` [THC, tetrahydrocannabinol], the “degree of pain relief” value in series [3] is listed as “lower degree of pain relief”.

The values are drawn from US20050042172A1, “Administration of medicaments by vaporisation” (priority 2001, published 2005).
